Measurements from patent US20130243847A1, “ACTIVATED CREATININE AND PRECURSORS THEREOF AS ANTIBACTERIAL AGENTS, COMPOSITIONS AND PRODUCTS CONTAINING SUCH AGENTS AND USE THEREOF” (BOARD OF REGENTS OF THE UNIVERSITY OF NEBRASKA, priority 2010, published 2013).

Columns and labels:
Format in all cases: cell-based
Saccharomyces sp. = assay: Selective growth on LBD agar, mixture of Micrococcus sp. and Saccharomyces sp. (Example 12, FIG. 11A)
Protocol: Colonies of Micrococcus sp. and Saccharomyces sp. grown on LB agar supplemented with 1% dextrose (LBD) were suspended in PBS to 0.30 A580 nm. An equal volume of the two organisms was combined and the mixture streaked onto LBD agar alone or LBD containing CEE and incubated at 37 C for 24 hours.

S. aureus = assay: Disc diffusion assay in hydrogel carrier (Example 8)
Protocol: Separate formulations of antibacterially-activated CRN and a precursor of antibacterially-activated CRN, CEE, were prepared by admixing the respective antibacterial agent with a hydrogel (Advanced Medical Solutions Ltd, UK.) in varying amounts to provide final concentrations of 1 M, 500 mM, 250 mM and 125 mM. Approximately 50 μL of each formulation at the four (4) different molar concentrations was added to a 6 mm disc and inverted onto a brain heart infusion agar plate that was previously spread with S. aureus suspended in PBS at 10^5 organisms per mL. Plates were incubated at 37° C. overnight and clear zones showing inhibition of bacterial growth were measured. The hydrogel carrier including no bacterial agent (0 mM) was used as a control.

[1] = test system: Saccharomyces sp. isolate from baker's yeast; assay: Disc diffusion assay, CEE vs gentamicin; details: 50 mg anhydrous topical cream with 28% by weight agent
Protocol: (§1) This testing involved the use of 50 mg of an anhydrous topical cream containing the antibacterial agent of the invention in an amount of 28% by weight and 10 μg of gentamicin, impregnated into a standard commercially available disc (Remel, Lenoxa Kans.).

[2] = test system: Bacillus subtilis laboratory strain; assay: Disc diffusion assay, CEE vs gentamicin; details: B. subtilis laboratory strain; 50 mg anhydrous topical cream with 28% by weight agent
Protocol: as §1

[3] = test system: Brevibacterium linens ATCC 9175; assay: Disc diffusion assay, CEE vs gentamicin; details: B. linens ATCC 9175; 50 mg anhydrous topical cream with 28% by weight agent
Protocol: as §1

[4] = test system: Pseudomonas fluorescens laboratory strain; assay: Disc diffusion assay, CEE vs gentamicin; details: P. fluorescens laboratory strain; 50 mg anhydrous topical cream with 28% by weight agent
Protocol: as §1

[5] = test system: Staphylococcus aureus UMSA-1 isolate; assay: Disc diffusion assay, CEE vs gentamicin; details: S. aureus UMSA-1 isolate; 50 mg anhydrous topical cream with 28% by weight agent
Protocol: as §1

[6] = test system: Pseudomonas aeruginosa laboratory strain 27853; assay: Disc diffusion assay, CEE vs gentamicin; details: P. aeruginosa laboratory strain 27853; 50 mg anhydrous topical cream with 28% by weight agent; gentamicin 10 μg disc
Protocol: as §1

[7] = test system: Staphylococcus epidermidis laboratory strain; assay: Disc diffusion assay, CEE vs gentamicin; details: S. epidermidis laboratory strain; 50 mg anhydrous topical cream with 28% by weight agent
Protocol: as §1

[8] = test system: Acinetobacter baumannii high level resistance (HLR); assay: Disc diffusion assay, CEE vs gentamicin; details: A. baumannii HLR; 50 mg anhydrous topical cream with 28% by weight agent; gentamicin 10 μg disc
Protocol: as §1

[9] = test system: Bacillus cereus laboratory strain; assay: Disc diffusion assay, CEE vs gentamicin; details: B. cereus laboratory strain; 50 mg anhydrous topical cream with 28% by weight agent
Protocol: as §1

[10] = test system: Rhodotorula sp. laboratory isolate; assay: Disc diffusion assay, CEE vs gentamicin; details: 50 mg anhydrous topical cream with 28% by weight agent
Protocol: as §1

[11] = test system: Staphylococcus aureus methicillin resistant (MRSA); assay: Disc diffusion assay, CEE vs gentamicin; details: S. aureus MRSA; 50 mg anhydrous topical cream with 28% by weight agent; gentamicin 10 μg disc
Protocol: as §1

[12] = test system: Enterococcus faecium vancomycin resistant (VRE); assay: Disc diffusion assay, CEE vs gentamicin; details: E. faecium VRE; 50 mg anhydrous topical cream with 28% by weight agent; gentamicin 10 μg disc
Protocol: as §1

[13] = test system: Staphylococcus aureus laboratory strain 29213; assay: Disc diffusion assay, CEE vs gentamicin; details: S. aureus laboratory strain 29213; 50 mg anhydrous topical cream with 28% by weight agent; gentamicin 10 μg disc
Protocol: as §1

[14] = test system: Pseudomonas aeruginosa high level resistance (HLR); assay: Disc diffusion assay, CEE vs gentamicin; details: P. aeruginosa HLR; 50 mg anhydrous topical cream with 28% by weight agent; gentamicin 10 μg disc
Protocol: as §1

[15] = test system: Candida albicans laboratory strain 24433; assay: Disc diffusion assay, CEE vs gentamicin; details: C. albicans laboratory strain 24433; 50 mg anhydrous topical cream with 28% by weight agent; gentamicin 10 μg disc
Protocol: as §1

[16] = test system: Enterococcus faecalis laboratory strain 29212; assay: Disc diffusion assay, CEE vs gentamicin; details: E. faecalis laboratory strain 29212; 50 mg anhydrous topical cream with 28% by weight agent; gentamicin 10 μg disc
Protocol: as §1

[17] = test system: Escherichia coli laboratory strain 35150; assay: Disc diffusion assay, CEE vs gentamicin; details: E. coli laboratory strain 35150; 50 mg anhydrous topical cream with 28% by weight agent; gentamicin 10 μg disc
Protocol: as §1

[18] = test system: Micrococcus luteus laboratory isolate; assay: Disc diffusion assay, CEE vs gentamicin; details: M. luteus laboratory isolate; 50 mg anhydrous topical cream with 28% by weight agent
Protocol: as §1

## CCOC(=O)CN(C)C(=N)N [CEE, creatine ethyl ester]
Saccharomyces sp.; 200 mM CEE in LBD agar, 37 C, 24 hours
  selectivity of media for yeast over Micrococcus sp.: selective for Saccharomyces
Saccharomyces sp.; 300-400 mM CEE in LBD agar (data not shown)
  growth of Saccharomyces: supported growth of Saccharomyces
S. aureus; Staphylococcus aureus
  zone of inhibition at 125000 µM: 7 mm
  zone of inhibition at 250000 µM: 10 mm
  zone of inhibition at 500000 µM: 15 mm
S. aureus; hydrogel, 1M, approx. 50 μL
  Zone of Inhibition: 20 mm
[1]
  Zone of Inhibition: 0 mm
[2]
  Zone of Inhibition: 20 mm
[3]
  Zone of Inhibition: 40 mm
[4]
  Zone of Inhibition: 18 mm
[5]
  Zone of Inhibition: 24 mm
[6]
  Zone of Inhibition: 27 mm
[7]
  Zone of Inhibition: 27 mm
[8]
  Zone of Inhibition: 16 mm
[9]
  Zone of Inhibition: 22 mm
[10]
  Zone of Inhibition: 0 mm
[11]
  Zone of Inhibition: 27 mm
[12]
  Zone of Inhibition: 18 mm
[13]
  Zone of Inhibition: 26 mm
[14]
  Zone of Inhibition: 25 mm
[15]
  Zone of Inhibition: 0 mm
[16]
  Zone of Inhibition: 19 mm
[17]
  Zone of Inhibition: 15 mm
[18]
  Zone of Inhibition: 22 mm
